# Experiments:
# BT-549 [1] = assay: Growth inhibition of human BT549 cells assessed as cell growth at 10 uM after 48 hrs by sulforhodamine B assay; assay type: functional; settings: BT-549, 48 h, read-out: Activity
# [2] = Growth inhibition of human Hs 578T cells assessed as cell growth at 10 uM after 48 hrs by sulforhodamine B assay; assay type: functional; settings: read-out: Activity
# MCF7 [3] = assay: Growth inhibition of human MCF7 cells assessed as cell growth at 10 uM after 48 hrs by sulforhodamine B assay; assay type: functional; settings: MCF7, 48 h, read-out: Activity
# DU-145 [4] = assay: Growth inhibition of human DU145 cells assessed as cell growth at 10 uM after 48 hrs by sulforhodamine B assay; assay type: functional; settings: DU-145, 48 h, read-out: Activity
# SN12C = assay: Growth inhibition of human SN12C cells assessed as cell growth at 10 uM after 48 hrs by sulforhodamine B assay; assay type: functional; settings: read-out: Activity
# CAKI-1 = assay: Growth inhibition of human CAKI-1 cells assessed as cell growth at 10 uM after 48 hrs by sulforhodamine B assay; assay type: functional; settings: CAKI-1, 48 h, read-out: Activity
# SW-620 = assay: Growth inhibition of human SW620 cells after 48 hrs by sulforhodamine B assay; assay type: functional; settings: SW-620, 48 h
# KM12 = assay: Growth inhibition of human KM12 cells after 48 hrs by sulforhodamine B assay; assay type: functional, cell-based; settings: KM12, 48 h
# NCI-H522 = assay: Growth inhibition of human NCI-H522 cells after 48 hrs by sulforhodamine B assay; assay type: functional; settings: NCI-H522, 48 h
# NCI-H460 = assay: Growth inhibition of human NCI-H460 cells after 48 hrs by sulforhodamine B assay; assay type: functional; settings: NCI-H460, 48 h
# NCI-H322M [5] = assay: Growth inhibition of human NCI-H322M cells after 48 hrs by sulforhodamine B assay; assay type: functional
# A549 = assay: Growth inhibition of human A549/ATCC cells after 48 hrs by sulforhodamine B assay; assay type: functional; settings: A549, 48 h
# RPMI-8226 = assay: Growth inhibition of human RPMI8226 cells after 48 hrs by sulforhodamine B assay; assay type: functional, cell-based; settings: RPMI-8226, 48 h
# K562 [6] = assay: Growth inhibition of human K562 cells after 48 hrs by sulforhodamine B assay; assay type: functional; settings: K562, 48 h
# CCRF-CEM [7] = assay: Growth inhibition of human CCRF-CEM cells after 48 hrs by sulforhodamine B assay; assay type: functional
# RXF 393 [8] = assay: Growth inhibition of human RXF393 cells assessed as cell growth at 10 uM after 48 hrs by sulforhodamine B assay; assay type: functional; settings: RXF 393, 48 h, read-out: Activity
# ACHN = assay: Growth inhibition of human ACHN cells assessed as cell growth at 10 uM after 48 hrs by sulforhodamine B assay; assay type: functional; settings: read-out: Activity
# OVCAR-5 [9] = assay: Growth inhibition of human OVCAR5 cells assessed as cell growth at 10 uM after 48 hrs by sulforhodamine B assay; assay type: functional; settings: OVCAR-5, 48 h, read-out: Activity
# OVCAR-4 = assay: Growth inhibition of human OVCAR4 cells assessed as cell growth at 10 uM after 48 hrs by sulforhodamine B assay; assay type: functional; settings: OVCAR-4, 48 h, read-out: Activity
# UACC-62 = assay: Growth inhibition of human UACC62 cells assessed as cell growth at 10 uM after 48 hrs by sulforhodamine B assay; assay type: functional; settings: UACC-62, 48 h, read-out: Activity
# IGROV-1 [10] = assay: Growth inhibition of human IGROV1 cells assessed as cell growth at 10 uM after 48 hrs by sulforhodamine B assay; assay type: functional; settings: IGROV-1, 48 h, read-out: Activity
# UACC-257 = assay: Growth inhibition of human UACC257 cells assessed as cell growth at 10 uM after 48 hrs by sulforhodamine B assay; assay type: functional; settings: UACC-257, 48 h, read-out: Activity
# U-251 = assay: Growth inhibition of human U251 cells assessed as cell growth at 10 uM after 48 hrs by sulforhodamine B assay; assay type: functional; settings: U-251, 48 h, read-out: Activity
# NCI-H322M [11] = assay: Growth inhibition of human NCI-H322M cells assessed as cell growth at 10 uM after 48 hrs by sulforhodamine B assay; assay type: functional; settings: read-out: Activity
# BT-549 [12] = assay: Growth inhibition of human BT549 cells after 48 hrs by sulforhodamine B assay; assay type: functional; settings: BT-549, 48 h
# MCF7 [13] = assay: Growth inhibition of human MCF7 cells after 48 hrs by sulforhodamine B assay; assay type: functional; settings: MCF7, 48 h
# DU-145 [14] = assay: Growth inhibition of human DU145 cells after 48 hrs by sulforhodamine B assay; assay type: functional; settings: DU-145, 48 h
# UO-31 = assay: Growth inhibition of human UO31 cells after 48 hrs by sulforhodamine B assay; assay type: functional; settings: UO-31, 48 h
# RXF 393 [15] = assay: Growth inhibition of human RXF393 cells after 48 hrs by sulforhodamine B assay; assay type: functional; settings: RXF 393, 48 h
# A498 = assay: Growth inhibition of human A498 cells after 48 hrs by sulforhodamine B assay; assay type: functional, cell-based; settings: A498, 48 h
# OVCAR-8 = assay: Growth inhibition of human OVCAR8 cells after 48 hrs by sulforhodamine B assay; assay type: functional; settings: OVCAR-8, 48 h
# OVCAR-5 [16] = assay: Growth inhibition of human OVCAR5 cells after 48 hrs by sulforhodamine B assay; assay type: functional; settings: OVCAR-5, 48 h
# IGROV-1 [17] = assay: Growth inhibition of human IGROV1 cells after 48 hrs by sulforhodamine B assay; assay type: functional; settings: IGROV-1, 48 h
# K562 [18] = assay: Growth inhibition of human K562 cells assessed as cell growth at 10 uM after 48 hrs by sulforhodamine B assay; assay type: functional; settings: K562, 48 h, read-out: Activity
# CCRF-CEM [19] = assay: Growth inhibition of human CCRF-CEM cells assessed as cell growth at 10 uM after 48 hrs by sulforhodamine B assay; assay type: functional; settings: read-out: Activity
# [20] = read-out: LC50 (the source's name)
smiles,measurement,setting,value
O=C(Nc1cccc(-n2cc(-c3ccncc3)c(-c3ccc(Cl)c(O)c3)n2)c1)Nc1cccc(C(F)(F)F)c1,growth at 10 µM,BT-549 [1],36%
same,growth at 10 µM,[2],29.4%
same,growth at 10 µM,MCF7 [3],10.3%
same,growth at 10 µM,DU-145 [4],23.1%
same,growth at 10 µM,SN12C,14.6%
same,growth at 10 µM,CAKI-1,30.1%
same,GI50,SW-620,3.83 µM
same,TGI,SW-620,> 32.5 µM
same,CC50,SW-620; [20],> 32.5 µM
same,GI50,KM12,1.33 µM
same,TGI,KM12,> 32.5 µM
same,CC50,KM12; [20],> 32.5 µM
same,GI50,NCI-H522,1.46 µM
same,LC50 (concentration killing 50% of cells),NCI-H522,> 32.5 µM
same,TGI,NCI-H522,14.5 µM
same,GI50,NCI-H460,1.18 µM
same,LC50,NCI-H460,> 32.5 µM
same,TGI,NCI-H460,29 µM
same,GI50,NCI-H322M [5],6.41 µM
same,TGI,NCI-H322M [5],> 32.5 µM
same,CC50,NCI-H322M [5]; [20],> 32.5 µM
same,GI50,A549,1.37 µM
same,LC50 (concentration killing 50% of starting cells),A549,> 32.5 µM
same,TGI,A549,> 32.5 µM
same,GI50,RPMI-8226,1.34 µM
same,IC50,RPMI-8226,1.34 µM
same,TGI,RPMI-8226,> 32.5 µM
same,CC50,RPMI-8226; [20],> 32.5 µM
same,GI50,K562 [6],1.44 µM
same,TGI,K562 [6],> 32.5 µM
same,CC50,K562 [6]; [20],> 32.5 µM
same,GI50,CCRF-CEM [7],1.4 µM
same,LC50,CCRF-CEM [7],> 32.5 µM
same,TGI,CCRF-CEM [7],> 32.5 µM
same,growth at 10 µM,RXF 393 [8],31.3%
same,growth at 10 µM,ACHN,11.2%
same,growth at 10 µM,OVCAR-5 [9],62.4%
same,growth at 10 µM,OVCAR-4,41.5%
same,growth at 10 µM,UACC-62,10.4%
same,growth at 10 µM,IGROV-1 [10],28.6%
same,growth at 10 µM,UACC-257,-11.6%
same,growth at 10 µM,U-251,15.8%
same,growth at 10 µM,NCI-H322M [11],48.2%
same,GI50,BT-549 [12],6.51 µM
same,LC50 (50% lethal concentration),BT-549 [12],> 32.5 µM
same,TGI,BT-549 [12],21.4 µM
same,GI50,MCF7 [13],1.34 µM
same,LC50,MCF7 [13],> 32.5 µM
same,TGI,MCF7 [13],> 32.5 µM
same,GI50,DU-145 [14],1.76 µM
same,LC50,DU-145 [14],> 32.5 µM
same,TGI,DU-145 [14],> 32.5 µM
same,GI50,UO-31,1.86 µM
same,TGI,UO-31,> 32.5 µM
same,CC50,UO-31; [20],> 32.5 µM
same,GI50,RXF 393 [15],3.02 µM
same,LC50 (concentration killing 50% of cells),RXF 393 [15],> 32.5 µM
same,TGI,RXF 393 [15],12 µM
same,GI50,A498,2.24 µM
same,IC50,A498,2.24 µM
same,TGI,A498,> 32.5 µM
same,CC50,A498; [20],> 32.5 µM
same,GI50,OVCAR-8,1.57 µM
same,TGI,OVCAR-8,> 32.5 µM
same,CC50,OVCAR-8; [20],> 32.5 µM
same,GI50,OVCAR-5 [16],13.7 µM
same,LC50 (concentration killing 50% of cells),OVCAR-5 [16],> 32.5 µM
same,TGI,OVCAR-5 [16],> 32.5 µM
same,GI50,IGROV-1 [17],1.64 µM
same,LC50 (concentration killing 50% of cells),IGROV-1 [17],> 32.5 µM
same,TGI,IGROV-1 [17],> 32.5 µM
same,growth at 10 µM,K562 [18],13.4%
same,growth at 10 µM,CCRF-CEM [19],10.6%

# From ChEMBL document CHEMBL2440076, “New triarylpyrazoles as broad-spectrum anticancer agents: design, synthesis, and biological evaluation” (Eur J Med Chem, 2013)
